Read-outs that look alike come from different tables or passages of the source.
Tests used:
[1] = target: T1, human serotonin 2C receptor (h-5-HT2C) (Homo sapiens (Human), UniProt P28335); test: 5-HT2C receptor agonistic action assay (FLIPR Calcium 4 Assay kit, h-5-HT2C/CHO cells); assay type: cell-based
Method: 3-1. The Cells and Inoculation Thereof
In the experiment, human serotonin 2C receptor (h-5-HT2C) was expressed in CHO cells (h-5-HT2C/CHO). The cells were incubated with UltraCHO Lipuid (trademark) (manufactured by BioWhitakker) containing 1% FBS, 400 μg/mL Geneticin, 100 U/mL penicillin—100 μg/mL streptomycin (all manufactured by Sigma Aldrich) and 250 μg/mL Zeosin (manufactured by InvivoGen) in an incubator containing 5% CO2. On the day before using the cells, they were detached and collected using 250 μg/mL Trypsin solution (manufactured by Nacalai Tesque), then inoculated in a 96 well flat clear bottom black polystyrene TC-treated microplates (manufactured by Corning) at 40000 cells/well/60 μL in an incubator containing 5% CO2 for 16 hours to 24 hours.
3-2. 5-HT2C Receptor Agonistic Action Assay
The 5-HT2C receptor agonistic action was evaluated with FLIPR Calcium 4 Assay kit (manufactured by Molecular Devices). In specific, to the cells inoculated in the plate were added Component A of FLIPR Calcium 4 Assay kit dissolved in 100 mL of HHBP buffer (1×Hanks buffer, 20 mmol/L HEPES, both manufactured by Gibco) at an amount of 40 μL/well, and the cells were incubated in an incubator containing 5% CO2 for 1 hour. Then, the cells were set in FLIPR TETRA (trademark) (manufactured by Molecular Devices), to the cells was added the test material diluted with HHBP buffer, 2.5 mmol/L Probenecid (manufactured by Sigma) (concentration after dilution: 10 μmol/L) at an amount of 20 μL/well, and the fluorescence was measured. Then, in order to evaluate the antagonistic action of the test material, 20 μL/well of 5-HT solution (manufactured by Sigma, final concentration: 0.1 nmol/L) was further added to the cells, and the fluorescence was measured.
The 5-HT2C receptor agonistic action of each test material was calculated as a rate of fluorescence enhancement wherein 100% was defined as a value when the cells were given 10 μmol/L 5-HT. Furthermore, the 5-HT2C receptor inverse agonistic action was calculated as a rate of fluorescence decay wherein −100% was defined as a value when the cells were given 10 μmol/L SB206553 (manufactured by Sigma Aldrich). A lower value of the 5-HT2C receptor agonistic action of the test material means that the material has a higher antagonistic action. In particular, when the value of the 5-HT2C receptor agonistic action of the test material is below 0%, the material has an inverse agonistic action for 5-HT2C receptor.

[2] = target: human serotonin transporter (h-SERT) (Homo sapiens (Human), UniProt P31645); test: [3H] citalopram binding assay to evaluate human serotonin reuptake inhibitory action (h-SERT binding assay); details: [3H] citalopram binding; read-out: Test Ex. 1: h-SERT binding inhibition constant Ki
Method: Citalopram Binding Assay to Evaluate Human Serotonin Reuptake Inhibitory Action
(§1) Preparation of the Cells and Membrane Preparations
In the experiment, human serotonin transporter (h-SERT) was expressed in CHO cells (h-SERT/CHO). The cells were incubated with F12 containing 10% FCS, 500 μg/mL Geneticin and 100 U/mL penicillin—100 μg/mL streptmycin (all manufactured by Sigma Aldrich) in an incubator containing 5% CO2; detached and collected using a SERT buffer [50 mmol/L Tris-HCl comprising 120 mmol/L NaCl and 5 mmol/L KCl (pH=7.4)]; homogenized with a homogenizer manufactured by Teflon (trademark); and then centrifuged (50,000×g, 30 min, 4° C.). The precipitate was suspended again in the appropriate amount of SERT buffer (to give a membrane preparation), and stored at −80° C. until used. The amount of protein in the membrane preparation was assayed by Dye Reagent Concentrate (manufactured by BIO-RAD) using bovine serum albumin (manufactured by Sigma Aldrich) as a standard.
1-2. h-SERT Binding Assay
The [^3H] citalopram binding was measured according to the method disclosed in Owens M. J. et al., J. Pharm. […] The solution was reacted at room temperature for 60 minutes, and then quickly suction-filtered under reduced pressure through a glass fiber filter coated with 0.05% aq. polyethyleneimine. The glass fiber filter was washed twice with […] of the SERT buffer, placed in a plastic vial containing 4 mL of liquid scintillator (ACS-II, manufactured by Amersham) or Ecoscint A (manufactured by National Diagnostics), and the remaining radioactivity on the filter paper was assayed with a liquid scintillation counter.

[3] = target: T1, human serotonin 2C receptor (h-5-HT2C); test: [3H] mesulergine binding assay to evaluate affinity for human 5-HT2C receptor; details: h-5-HT2C/CHO membrane preparation, read-out: Test Ex. 2: 5-HT2C receptor binding inhibition constant Ki
Method: Mesulergine Binding Assay to Evaluate Affinity for Human 5-HT2C Receptor
as §1
In the experiment, human serotonin 2C receptor (h-5-HT2C) was expressed in CHO cells (h-5-HT2C/CHO). The cells were incubated with UltraCHO Lipuid (trademark) (manufactured by BioWhitakker) containing 1% FBS, 400 μg/mL Geneticin, 100 U/mL penicillin—100 μg/mL streptomycin (all manufactured by Sigma Aldrich) and 250 μg/mL Zeosin (manufactured by InvivoGen) in an incubator containing 5% CO2; detached and collected using 50 mmol/L Tris-HCl (pH=7.4); homogenized with a homogenizer manufactured by Teflon (trademark); and then centrifuged (48,000×g, 25 min, 4° C.). The precipitate was suspended again in the appropriate amount of 50 mmol/L Tris-HCl (to give a membrane preparation), and stored at −80° C. until used. The amount of protein in the membrane preparation was assayed by Dye Reagent Concentrate (manufactured by BIO-RAD) using bovine serum albumin (manufactured by Sigma Aldrich) as a standard.
2-2. 5-HT2C Receptor Binding Assay
A solution of 200 μL in total was prepared by mixing 50 μL of [^3H] mesulergine (manufactured by GE Healthcare) diluted with 50 mmol/L Tris-HCl (pH=7.4) (final concentration: about 2 nmol/L), 149 μL of the h-5-HT2C/CHO membrane preparation (protein amount: 20 μg/well), and 1 μL of the test drug dissolved in dimethylsulfoxide. The solution was reacted at 37° C. for 30 minutes, and then quickly suction-filtered under reduced pressure through a glass fiber filter coated with 1% aq. bovine serum albumin. The glass fiber filter was washed twice with 250 μL of 50 mmol/L Tris-HCl (pH=7.4), placed in a plastic vial containing 4 mL of liquid scintillator (ACS-II, manufactured by Amersham) or Ecoscint A (manufactured by National Diagnostics), and the remaining radioactivity on the filter paper was assayed with a liquid scintillation counter. The non-specific binding of [^3H] mesulergine was defined as a binding amount in the presence of 10 μmol/L SB206553 (manufactured by Sigma Aldrich). The IC50 value was calculated according to Hill analysis, and the binding inhibition constant (Ki) was calculated according to the following formula: Binding inhibition constant (Ki)=IC50/(1+S/Kd) wherein S is a concentration of the added [^3H] mesulergine, and Kd is a binding dissociation constant of [^3H] mesulergine which was calculated from a saturated binding assay using the same cell membrane.

[4] = test material 10 μmol/L, 100% = 10 μmol/L 5-HT, −100% = 10 μmol/L SB206553, below 0% = inverse agonistic action

T1 sequence (P28335 whole entry, looked up): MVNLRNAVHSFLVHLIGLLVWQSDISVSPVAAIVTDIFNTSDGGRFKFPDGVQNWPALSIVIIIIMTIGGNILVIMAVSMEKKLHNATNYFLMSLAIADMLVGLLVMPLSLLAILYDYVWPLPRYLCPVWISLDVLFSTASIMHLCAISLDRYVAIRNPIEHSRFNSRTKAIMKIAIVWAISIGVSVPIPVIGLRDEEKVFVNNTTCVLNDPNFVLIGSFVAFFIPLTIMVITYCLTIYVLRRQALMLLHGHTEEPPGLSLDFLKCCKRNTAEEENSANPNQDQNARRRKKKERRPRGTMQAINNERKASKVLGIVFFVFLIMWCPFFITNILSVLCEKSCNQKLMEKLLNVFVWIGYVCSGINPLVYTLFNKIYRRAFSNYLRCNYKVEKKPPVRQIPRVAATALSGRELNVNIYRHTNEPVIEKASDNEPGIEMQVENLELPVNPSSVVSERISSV

SMILES | Test Ex. 3: 5-HT2C receptor agonistic action [1, 4] [%] | Ki [2] [nM] | Ki [3] [nM] | Test Ex. 3: 5-HT2C receptor agonistic action [1] [%]
CNCc1cc(OCc2cc(Cl)ccc2F)n(CC2CCCCO2)n1.Cl (single isomer, unassigned; (+)) [Example 475, (+)-1-{5-[(5-chloro-2-fluorobenzyl)oxy]-1-(tetrahydro-2H-pyran-2-ylmethyl)-1H-pyrazol-3-yl}-N-methylmethanamine] | −95 | – | – | –
CNC(C)c1cc(OCc2cc(F)ccc2F)n(CCC2CCCC2)n1 (single isomer, unassigned; (+)) [Example 477, (+)-1-{1-(2-cyclopentylethyl)-5-[(2,5-difluorobenzyl)-oxy]-1H-pyrazol-3-yl}-N-methylethanamine] | −94 | – | – | –
CNCc1cc(OCc2cc(Cl)ccc2F)n(CC2CCCCO2)n1 (single isomer, unassigned; (-)) [Example 474, (−)-1-{5-[(5-chloro-2-fluorobenzyl)oxy]-1-(tetrahydro-2H-pyran-2-ylmethyl)-1H-pyrazol-3-yl}-N-methylmethanamine] | −111 | – | – | –
CNC(C)c1cc(OCc2cc(F)ccc2F)n(CCC2CCCC2)n1 (single isomer, unassigned; (-)) [Example 476, (−)-1-{1-(2-cyclopentylethyl)-5-[(2,5-difluorobenzyl)-oxy]-1H-pyrazol-3-yl}-N-methylethanamine] | −72 | – | – | –
CNCc1cc(OCc2cccc(OC)c2)n(CC2CCCCC2)n1 [Compound 42] | −106 | 4.9 | – | –
CNCc1cc(OCc2ccc(F)cc2C)n(CC2CCCCO2)n1 (centres unmarked) [Compound 108] | −117 | 1.9 | 18 | –
CNCc1cc(OCc2cc(Cl)ccc2F)n(CCC(C)OC)n1 (centres unmarked) [Compound 405] | −90 | 11 | 23 | –
CNCc1cc(OCc2cc(Cl)ccc2F)n(CC2(OC)CCCCC2)n1 [Compound 434] | −87 | 4.5 | – | –
CNCc1cc(OCc2ccccc2)n(CCCc2ccccc2)n1 [Example 3, 1-[5-(Benzyloxy)-1-(3-phenylpropyl)-1H-pyrazol-3-yl]-N-methylmethanamine] | – | 12 | 5.4 | −91
CNCc1cc(OCc2ccccc2)n(CC2CCCCC2)n1 [Example 5, 1-[5-(Benzyloxy)-1-(cyclohexylmethyl)-1H-pyrazol-3-yl]-N-methylmethanamine] | – | 1.5 | 4.4 | −91
CNCc1cc(OCc2ccc(F)cc2F)n(CC2CCCC2)n1 [Example 144, 1-{1-(cyclopentylmethyl)-5-[(2,4-difluorobenzyl)oxy]-1H-pyrazol-3-yl}-N-methylmethanamine] | – | 8.3 | 2.2 | −127
CNCc1cc(OCc2ccccc2F)n(Cc2ccc(F)cc2)n1 [Example 218, 1-{1-(4-fluorobenzyl)-5-[(2-fluorobenzyl)oxy]-1H-pyrazol-3-yl}-N-methylmethanamine] | −111 | 9.7 | 10 | –
CCC(CC)n1nc(CNC)cc1OCc1ccc(F)cc1Cl [Example 253] | −86 | 1.5 | 31 | –
CNCc1cc(OCc2cc(Cl)ccc2F)n(CC(C)C)n1 [Example 256, 1-{5-[(5-chloro-2-fluorobenzyl)oxy]-1-(2-methylpropyl)-1H-pyrazol-3-yl}-N-methylmethanamine] | −97 | – | – | –
CNCc1cc(OCc2cc(Cl)ccc2F)n(CC(C)(C)C)n1 [Example 259, 1-{5-[(5-chloro-2-fluorobenzyl)oxy]-1-(2,2-dimethylpropyl)-1H-pyrazol-3-yl}-N-methylmethanamine] | −119 | – | – | –
CNCc1cc(OCc2cc(F)ccc2F)n(CCC(C)(C)C)n1 [Example 266, 1-{5-[(2,5-difluorobenzyl)oxy]-1-(3,3-dimethylbutyl)-1H-pyrazol-3-yl}-N-methylmethanamine] | −86 | – | – | –
CNCc1cc(OCc2cc(Cl)ccc2F)n(CCC(C)(C)OC)n1 [Example 275, 1-{5-[(5-chloro-2-fluorobenzyl)oxy]-1-(3-methoxy-3-methylbutyl)-1H-pyrazol-3-yl}-N-methylmethanamine] | – | – | – | −88
CNC(C)c1cc(OCc2cc(F)ccc2F)n(CCC2CCCC2)n1 (centres unmarked) [Example 315, 1-{1-(2-cyclopentylethyl)-5-[(2,5-difluorobenzyl)oxy]-1H-pyrazol-3-yl}-N-methylethanamine] | −84 | – | – | –
CNCc1cc(OCc2cc(F)ccc2F)n(CC2(C(F)(F)F)CCCC2)n1 [Example 447, 1-(5-[(2,5-difluorobenzyl)oxy]-1-{[1-(trifluoro-methyl)cyclopentyl]methyl}-1H-pyrazol-3-yl)-N-methylmethanamine] | – | 0.5 | 13 | –
CNCc1cc(OCc2cc(Cl)ccc2F)n(CC2(C(F)(F)F)CCCC2)n1 [Example 448, 1-(5-[(5-chloro-2-fluorobenzyl)oxy]-1-{[1-(trifluoro-methyl)cyclopentyl]methyl}-1H-pyrazol-3-yl)-N-methylmethanamine] | – | 3.8 | 8.8 | –

Source: patent US10183913B2, “Pyrazole compound” (Sumitomo Dainippon Pharma Co., Ltd., priority 2010, dated 2019)
